The text below walks through data of patent publication US11891422B2 (priority 2018, dated 2024).

Series [1] has as its system BC-3 PEL cell line. In words: CellTiter-Glo cell viability assay, BC-3. As to conditions: read-out: BC-3 LC50 (μM). The method, then:
Media was supplemented with 20% FBS 3 hours post-peptide treatment.
(§1) Cytotoxicity of these hits was assayed using CellTiter Glo viability assay.
(In ATP-based viability assays light output follows the ATP content of the culture.)

Series [2] in a line: in vitro. Particulars: human. As to the method:
as §1

Series [3] has as its system BCBL-1 PEL cell line. Particulars: BCBL-1, KSHV+; read-out: PU-H71 LC50; cited from earlier work.
For series [4], the system named is BC-2 PEL cell line. Particulars: BC-2, KSHV+/EBV+; read-out: PU-H71 LC50; cited from earlier work.
For series [5], the system named is Namalwa Burkitt lymphoma cell line. As to conditions: EBV+, read-out: PU-H71 LC50; cited from earlier work.
Series [6] concerns BC-1 PEL cell line. Particulars: BC-1, KSHV+/EBV+; read-out: PU-H71 LC50; cited from earlier work.
Series [7] deals with BC-3 PEL cell line. As to conditions: BC-3, KSHV+; read-out: PU-H71 LC50; cited from earlier work.
Series [8] deals with Namalwa Burkitt lymphoma cell line. Description: CellTiter-Glo cell viability assay, Namalwa. It counts as cell-based.
The test system of series [9] is PEL cell lines (BC-1, BC-3, BCBL-1). Description: CellTiter-Glo cytotoxicity in panel of PEL cell lines. The class given is cell-based. As to conditions: FIG. 5A.
Series [10] deals with T1, vFLIP/NEMO complex in vFLIP-FLAG doxycycline-inducible Namalwa cell line (Human herpesvirus 8 type P, UniProt F5HEZ4).
T1 construct: expressed in transfected cells; host or cells: Namalwa Burkitt lymphoma cells, lentivirally transduced (pLVX-TetOne-puro), doxycycline-induced
T1 sequence (F5HEZ4 whole entry, one chain of several): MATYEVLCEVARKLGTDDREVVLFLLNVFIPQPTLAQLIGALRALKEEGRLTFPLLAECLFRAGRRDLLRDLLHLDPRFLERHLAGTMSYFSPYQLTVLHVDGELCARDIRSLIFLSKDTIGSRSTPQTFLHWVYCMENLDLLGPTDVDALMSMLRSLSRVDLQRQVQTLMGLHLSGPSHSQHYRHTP
Description: Co-immunoprecipitation of vFLIP-FLAG and NEMO. The class given is cell-based. Particulars: 24 hrs treatment, increasing concentrations. The method, then:
Co-Immunoprecipiation: FLAG-tagged WT vFLIP or a vFLIP NF-κB dead mutant (vFLIP^AAA(58-60)) inducible Namalwa Burkitt lymphoma cell lines were used. Expression of WT vFLIP or mutant vFLIP was attained by treating cells with 1 μg/mL doxcycline for 24 hrs. […] 4 hours post-treatment, media was supplemented with 20% FBS and treatment continued for another 24 hrs. Next day, uninduced Namalwa WT vFLIP cell line, treated Namalwa WT vFLIP expressing cell lines as well as Namalwa expressing mutant vFLIP and parental Namalwa cell lines were harvested, washed in PBS and lysed on ice for 30 minutes using CelLytic M lysis reagent (Sigma, cat. C2978) supplemented with protease inhibitor cocktail (calbiochem, cat 539134). Cells were spun down and some of supernatants was saved for input and the rest was immunoprecipitated overnight using anti-FLAG M2beads (Sigma, cat. A2220) that were pre-equilibrated with the same buffer. […]
Immunoblotting: For co-immunoprecipitation study, eluted protein lysates were separated using pre-casted 10% sodium dodecyl sulfate-polyacrylamide gel electrophoresis SDS-PAGE gel (Bio-rad). […] Secondary anti-HRP rabbit antibody was used at 1:5000 dilution (GE healthcare) and chemiluminescent signal was detected using enhanced chemiluminescence (ECL) substrate (thermo Fisher Scientific) and autoradiography. […]

For series [11], the system named is BC-1 cells. In words: Live cell confocal microscopy cellular uptake. It counts as in vitro ADME. As to the method: Live Cell Confocal Microscopy and Analysis: BC1 PEL cells in the exponential phase were resuspended in RPMI 1640 media supplemented with 50 μg/ml gentamicin in the absence of serum and treated with a final concentration of 0.125% DMSO or 500 nM FITC-labeled peptide at 37° C., cold or in the presence of 10 mM sodium azide. Cells were then added to 35 mm glass bottom MatTek poly-lysine coated plates (p356c-0-10C) and immunofluorescence images were captured using LSM880 confocal miscroscope with Airyscan resolution detector, spectral detector and incubation. Images were processed using Fiji software (FIG. 14).
Inhibition of the vFLIP-NEMO complex formation in KSHV-infected PEL cells requires the inhibitor to be cell permeable. […] In order to probe cellular entry mechanism, we performed cellular uptake experiments at 4° C. as well as with sodium azide poisoning to reduce ATP-mediated active transport mechanisms without affecting overall cellular viablity (Patgiri et al., Nat. Chem. Biol. 7:585-7 (2011); which is hereby incorporated by reference in its entirety).

In series [12] the test system is full length NEMO. In words: Fluorescence polarization direct binding assay, specificity over NEMO. As to conditions: FITC-labeled peptide. From the text:
(§2) Data plotted represent mean±s.e.m of three replicate experiments. TR-FRET signal was normalized to DMSO control and expressed as percent inhibition. […] Data shown represent mean±s.d. of two independent experiments performed in triplicate. Data was normalized to c. (FIG. 3C) The conformation of the coiled coil mimics was investigated by circular dichroism spectroscopy in aqueous buffer. The reported values represent mean±s.e.m of two independent experiments. […] The circular dichroism spectra were collected at regular intervals between 5-95° C. Data shown represent one experiment where scans were recorded five times over the temperature range. […] Peptide degradation was probed over 24 h by HPLC. […] Cells were visualized by fluorescence microscopy after 1 hour incubation. […] Hoechst stain was used to detect the nuclei. Representative live confocal images from at least three replicate experiments are shown.
The polarization experiments were performed using a DTX 880 Multimode Detector (Beckman) at 25° C. with excitation and emission wavelengths of 485 and 525 nm, respectively. Each polarization experiment was performed in a 96-well round bottom plate (Greiner) in assay buffer: Tris glycerol pluronic acid. The binding affinity (KD) values reported for each peptide are from experiments performed in triplicate. […]

For series [13], the system named is BC-3-luc PEL cells xenograft. Description: PEL in vivo xenograft mouse model. Details: species or system NOD/SCID mice. As to conditions: 20 mg/kg intraperitoneally, 9 consecutive days. The method, then:
PEL in Vivo Xenograft Mouse Model Study: […] BC3NFRen-luc #3 were injected intraperitoneally into 4-6 week-old male NOD/SCID mice. […] The tumor burden or bioluminescence (photons/s/cm^2/steradian) was monitored by live imaging and weighing, with the sacrificial endpoint determined to be a net gain or loss of 10% body weight over a week.
We next tested its antitumor activity in vivo. We injected 10×10^6 BC-3-luc PEL cells into the peritoneal cavity of NOD-SCID mice and monitored tumor burden by bioluminescence imaging.

A short description of series [14]: Serum stability assay. It counts as in vitro ADME. Particulars: 25% fetal bovine serum in RPMI, 60 μM peptide, read-out: initial peptide remaining intact. The method, then: Time points of 30 minutes, 1 hr, 2 hr, 8 hr, and 24 hrs were analyzed in triplicate. Each reaction was started upon addition of FBS to 60 μM peptide. Reactions were quenched at time points with addition of 100% EtOH, chilled on ice for 10 minutes, and pelleted at 12,000 RPM. Supernatant was injected onto an Agilent analytical HPLC equipped with an XTerra RP18 3.5 μm 2.1×150 mm column (Part No. 186000410) and visualized at 220 nm. Integration of peak areas was used to determine percent degradation of peptides. Mass of cleaved products were determined using Matrix assisted laser desorption ion time of flight (MALDI-TOF) spectroscopy.

A short description of series [15]: Circular dichroism thermal denaturation. It counts as physicochemical. As to conditions: CD spectra between 5-95° C.
From the text: as §2
Circular Dichroism Spectroscopy: CD spectra were recorded on a Jasco J-1500 Circular Dichroism Spectrophotometer equipped with a temperature controller using 1 mm length cells and a scan speed of 4 nm/min at 298K. The spectra were averaged over 4 scans with the background subtracted to the analogous experimental conditions. […] The concentrations of each peptide were determined by the UV absorption at 280 nm.
For orientation: Circular dichroism is the unequal absorption of left and right circularly polarised light.

Where two headings read alike, the source gives them in different places. Bounds are passed on as bounds.

With `CCCCC(CC)CNC(=N)NC(=N)NCCCCCCNC(=N)NC(=N)NCC(CC)CCCC` (stereo not drawn) [Compound 9], the CC50 in series [1] is 3.9 µM; in [2], 3.8 µM.
In the same order, the values of `O=C(C1CCCN1c1ncccn1)N1CCc2c(Cl)cccc2C1` (stereo not drawn) [Compound 7] are 39.9 µM and 31.6 µM.
Consider `CC(C)NCCCn1c(Sc2cc3c(cc2I)OCO3)nc2c(N)ncnc21` [PU-H71], for which the CC50 in series [3] is 0.217 µM; in series [4] it was 0.0271 µM; in [5] it was 0.337 µM; in series [6], 0.0369 µM; in series [7], 0.0634 µM. The “sensitivity of vFLIP-negative Namalwa cells” value in series [8] is “showed sensitivity”. In addition, the “sensitivity of PEL cell lines” value in series [9] is on record as “showed sensitivity”. Also, in series [10], the “disruption of vFLIP/NEMO complex (NEMO pulled down by FLAG beads)” value is “disrupted the complex and destabilized both vFLIP and NEMO”.
`Cc1cc(CNC(=O)NC2CCCC2)cc(C)c1O` [Compound 5]: the CC50 in series [1] and in [2] was more than 100 µM each time.
`c1ccc2c(c1)Nc1ccccc1S2` [Compound 3]: the CC50 in series [1] was determined as 62.7 µM; in series [2], 63 µM.
In the same order, the values of `CN(Cc1ccc2cccnc2c1)S(=O)(=O)c1cccs1` [Compound 4] are more than 100 µM and more than 100 µM.
As to `Cc1cccc(-c2cccc(CNC(=O)NCCS(C)(=O)=O)c2)c1` [Compound 8], the CC50 in series [1] and in series [2] was more than 100 µM throughout.
`CCOc1ccc2nc3cc(N)ccc3c(N)c2c1` [Compound 2]: the CC50 turned out to be 12.2 µM in [1] and 7.7 µM in series [2].
For `CC(=O)N1CCc2cc(C(=O)C(C)Oc3ccc(C#N)cc3Cl)ccc21` (stereo not drawn) [Compound 6], in that order: 35.9 µM and 69.7 µM.
Take `CC[C@H](C)[C@H](NC(=O)[C@H](CC(C)C)NC(=O)[C@H](CCC(=O)O)NC(=O)[C@H](CC(=O)O)NC(=O)[C@@H](NC(=O)[C@H](CCCCn1cc(COCc2cn(CCCC[C@H](NC(=O)[C@H](CC(C)C)NC(=O)[C@H](CCCNC(=N)N)NC(=O)[C@H](CCCNC(=N)N)NC(=O)[C@@H](NC(=O)[C@H](CCC(=O)NC3CCCCC3)NC(=O)[C@H](CCC(=O)O)NC(=O)[C@H](Cc3c[nH]c4ccccc34)NC(=O)[C@H](CC(C)C)NC(=O)[C@H](CCC(N)=O)NC(=O)[C@H](CCCNC(=N)N)NC(=O)[C@@H](NC(=O)[C@H](Cc3c[nH]c4ccccc34)NC(=O)[C@H](CCC(=O)O)NC(=O)CCNC(=S)Nc3ccc4c(c3)C(=O)OC43c4ccc(O)cc4Oc4cc(O)ccc43)[C@@H](C)CC)[C@@H](C)CC)C(N)=O)nn2)nn1)NC(=O)[C@H](CCCNC(=N)N)NC(=O)[C@H](Cc1ccccc1)NC(=O)[C@H](CC(C)C)NC(=O)[C@H](CCCNC(=N)N)NC(=O)[C@H](Cc1c[nH]cn1)NC(=O)[C@@H](NC(=O)[C@H](CCC(=O)O)NC(C)=O)[C@@H](C)CC)[C@@H](C)CC)C(=O)N[C@@H](CCCNC(=N)N)C(N)=O` [FITC-CHD3^NEMO]: the “time to enter BC-1 cells” value in [11] (500 nM FITC-labeled peptide, 37° C.) was not above 30 min. The “binding to wild-type NEMO coiled coil” value in series [12] was “failed to bind wild-type NEMO coiled coil”.
With `CC[C@H](C)[C@H](NC(=O)[C@H](CC(C)C)NC(=O)[C@H](CCC(=O)O)NC(=O)[C@H](CC(=O)O)NC(=O)[C@@H](NC(=O)[C@H](CCCCn1cc(COCc2cn(CCCC[C@H](NC(=O)[C@H](CC(C)C)NC(=O)[C@H](CCCNC(=N)N)NC(=O)[C@H](CCCNC(=N)N)NC(=O)[C@@H](NC(=O)[C@H](CCC(=O)NC3CCCCC3)NC(=O)[C@H](CCC(=O)O)NC(=O)[C@H](Cc3c[nH]c4ccccc34)NC(=O)[C@H](CC(C)C)NC(=O)[C@H](CCC(N)=O)NC(=O)[C@H](CCCNC(=N)N)NC(=O)[C@@H](NC(=O)[C@H](Cc3c[nH]c4ccccc34)NC(=O)[C@H](CCC(=O)O)NC(C)=O)[C@@H](C)CC)[C@@H](C)CC)C(N)=O)nn2)nn1)NC(=O)[C@H](CCCNC(=N)N)NC(=O)[C@H](Cc1ccccc1)NC(=O)[C@H](CC(C)C)NC(=O)[C@H](CCCNC(=N)N)NC(=O)[C@H](Cc1c[nH]cn1)NC(=O)[C@@H](NC(=O)[C@H](CCC(=O)O)NC(C)=O)[C@@H](C)CC)[C@@H](C)CC)C(=O)N[C@@H](CCCNC(=N)N)C(N)=O` [CHD3^NEMO], in series [13], the observed toxicity entry is “without any observed toxicity”. Besides, the amount remaining at 24 h, 60 μM in [14] was approximately 80%. For the same compound, in series [15], the “conformational stability (helix percentage vs temperature)” value is “retain a significant proportion of helix percentage at high temperatures”. Further, the “cellular uptake at cold temperatures and with sodium azide” value in series [11] (4° C., 10 mM sodium azide) is “reduction in cellular uptake”.

In general, share remaining refers to what is left of the initial amount, in per cent.
